Laboratory results as given in PubChem BioAssay AID1919006 (Molecular Pharmacology Branch, DTP, NCI, 2023).

Tested on: 885512-296-R-J2-PDC complex spheroid growth, % test/control
Assay: Anticancer human tumor 885512-296-R-J2-PDC patient-derived breast carcinoma cell line growth inhibition [AhR]
Conditions: for IC50: curve of first compound; for viability, T/C: stronger effect = lower value
Procedure, shortened: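 Complex tumor spheroids co-cultured with HUVEC and human MSC stroma; AhR antagonists tested in combination with standard-of-care and investigational agents. Top concentration at or near clinical Cmax (else 10 microM), half-log dilutions; growth expressed as percent test/control.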

[1] = second compound 0.1 µM, first compound 0.0316 µM
[2] = second compound 0.1 µM, first compound 0.1 µM
[3] = second compound 0.1 µM, first compound 0.316 µM
[4] = second compound 0.1 µM, first compound 1 µM
[5] = second compound 0.1 µM, first compound 3.16 µM
[6] = second compound 0.1 µM, first compound 10 µM
[7] = second compound 0.316 µM, first compound 0.0316 µM
[8] = second compound 0.316 µM, first compound 0.1 µM
[9] = second compound 0.316 µM, first compound 0.316 µM
[10] = second compound 0.316 µM, first compound 1 µM
[11] = second compound 0.316 µM, first compound 3.16 µM
[12] = second compound 0.316 µM, first compound 10 µM
[13] = second compound 1 µM, first compound 0.0316 µM
[14] = second compound 1 µM, first compound 0.1 µM
[15] = second compound 1 µM, first compound 0.316 µM
[16] = second compound 1 µM, first compound 1 µM
[17] = second compound 1 µM, first compound 3.16 µM
[18] = second compound 1 µM, first compound 10 µM
[19] = second compound 3.16 µM, first compound 0.0316 µM
[20] = second compound 3.16 µM, first compound 0.1 µM
[21] = second compound 3.16 µM, first compound 0.316 µM
[22] = second compound 3.16 µM, first compound 1 µM
[23] = second compound 3.16 µM, first compound 3.16 µM
[24] = second compound 3.16 µM, first compound 10 µM
[25] = second compound 10 µM, first compound 0.0316 µM
[26] = second compound 10 µM, first compound 0.1 µM
[27] = second compound 10 µM, first compound 0.316 µM
[28] = second compound 10 µM, first compound 1 µM
[29] = second compound 10 µM, first compound 3.16 µM
[30] = second compound 10 µM, first compound 10 µM
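Further: spheroids exposed to compounds for seven days.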

| Structure (SMILES) | IC50 (second compound 0.1 µM) | IC50 (second compound 0.316 µM) | IC50 (second compound 1 µM) | IC50 (second compound 3.16 µM) | IC50 (second compound 10 µM) | viability, T/C [1] | viability, T/C [2] | viability, T/C [3] | viability, T/C [4] | viability, T/C [7] | viability, T/C [8] | viability, T/C [9] | viability, T/C [10] | viability, T/C [13] | viability, T/C [14] | viability, T/C [15] | viability, T/C [16] | viability, T/C [19] | viability, T/C [20] | viability, T/C [21] | further results |
| --- | --- | --- | --- | --- | --- | --- | --- | --- | --- | --- | --- | --- | --- | --- | --- | --- | --- | --- | --- | --- | --- |
| CC(C)c1c(-c2ccccc2)nc2c(C#N)c[nH]n2c1=O + Cc1cncc(-c2nc(NCCc3c[nH]c4ccccc34)c3ncn(C(C)C)c3n2)c1 | > 10000 nM | > 10000 nM | > 10000 nM | > 10000 nM | < 31.6 nM | 108% | 108% | 101% | 109% | 104% | 108% | 105% | 93.3% | 94.5% | 95.4% | 83% | 83.2% | 62% | 59.7% | 56.2% | viability, T/C [5]: 97.1%; viability, T/C [6]: 86.6%; viability, T/C [11]: 102%; viability, T/C [12]: 89.3%; viability, T/C [17]: 80.8%; viability, T/C [18]: 81.8%; viability, T/C [22]: 62.1%; viability, T/C [23]: 60.5%; viability, T/C [24]: 52.3%; viability, T/C [25]: 17%; viability, T/C [26]: 18.7%; viability, T/C [27]: 17.9%; viability, T/C [28]: 14.5%; viability, T/C [29]: 17.9%; viability, T/C [30]: 17.9% |
| CC1COCCN1c1cc(-c2ccnn2C)c2ccnc(-c3ccn[nH]3)c2n1 (stereo not given) + Cc1cncc(-c2nc(NCCc3c[nH]c4ccccc34)c3ncn(C(C)C)c3n2)c1 | 34.4 nM | 33.4 nM | 22.1 nM | 3.22 nM | < 3.16 nM | 55.2% | 9.6% | 3.2% | 2.72% | 51.9% | 9.85% | 3.26% | 2.57% | 40.3% | 7.24% | 2.89% | 2.37% | 33.7% | 8.94% | 2.55% | viability, T/C (second compound 0.1 µM, first compound 0.00316 µM): 99.4%; viability, T/C (second compound 0.1 µM, first compound 0.01 µM): 85.3%; viability, T/C (second compound 0.316 µM, first compound 0.00316 µM): 83.1%; viability, T/C (second compound 0.316 µM, first compound 0.01 µM): 95.9%; viability, T/C (second compound 1 µM, first compound 0.00316 µM): 74.4%; viability, T/C (second compound 1 µM, first compound 0.01 µM): 71.3%; viability, T/C (second compound 3.16 µM, first compound 0.00316 µM): 48.9%; viability, T/C (second compound 3.16 µM, first compound 0.01 µM): 50.1%; viability, T/C [22]: 2.78%; viability, T/C (second compound 10 µM, first compound 0.00316 µM): 13.3%; viability, T/C (second compound 10 µM, first compound 0.01 µM): 15.6%; viability, T/C [25]: 9.95%; viability, T/C [26]: 6.27%; viability, T/C [27]: 3.04%; viability, T/C [28]: 2.87% |
| COc1ccc([C@@H](O)c2cc(-c3ncnc4cc(N5CCOCC5)ccc34)c(F)cc2Cl)nn1 + Cc1cncc(-c2nc(NCCc3c[nH]c4ccccc34)c3ncn(C(C)C)c3n2)c1 | > 10000 nM | 8020 nM | 6100 nM | 933 nM | < 31.6 nM | 101% | 93.2% | 87.4% | 87.3% | 104% | 89.7% | 81.9% | 86.5% | 90.9% | 78.4% | 86.8% | 77.7% | 55.2% | 55.5% | 48.2% | viability, T/C [5]: 63.1%; viability, T/C [6]: 51.7%; viability, T/C [11]: 65.9%; viability, T/C [12]: 45.1%; viability, T/C [17]: 63.2%; viability, T/C [18]: 39.5%; viability, T/C [22]: 53.3%; viability, T/C [23]: 42.6%; viability, T/C [24]: 32.4%; viability, T/C [25]: 18.1%; viability, T/C [26]: 15.5%; viability, T/C [27]: 16.1%; viability, T/C [28]: 13.2%; viability, T/C [29]: 11.3%; viability, T/C [30]: 9.01% |
